Laboratory results published in patent US20220041627A1, “PRODRUGS OF ANTI-CANCER AND ANTI-AUTOIMMUNE DISEASES THERAPEUTIC AGENTS, AND METHODS OF MAKING AND USE THEREOF” (UNIVERSITY OF MARYLAND, BALTIMORE, priority 2018, published 2022).

Columns and labels:
[1] = system: TK-10; experiment: NCI-60 growth inhibition, TK-10; format: cell-based, human
Description: The anticancer effects of compounds 1a-1b against 60 human cancer cell lines (the Developmental Therapeutics Program of NCI) were studied. The cell lines were derived from different cancer types including leukemia, non-small-cell lung cancer, colon cancer, CNS cancer, melanoma, ovarian cancer, renal cancer, prostate cancer, and breast cancer (Table 1; the assay protocol can be found at: https://dtp.cancer.gov/default.htm). Compound 1a caused over 50% growth inhibition for most tested cell lines. […] Without wishing to be bound by any particular theory, it is believed that the differences in the anticancer effects between compounds 1a and 1b may be due to the more favorable cell membrane permeability of the boronic ester 1a.

[2] = system: breast cancer MCF7 cells; experiment: Cell viability (CCK8) in breast cancer MCF7 cells; format: cell-based, human; details: different concentrations, compared with parent drug 5-FU
Experimental: (§1) FIGS. 2A and 2B illustrate the anticancer effects and selectivity of 5-FU and compounds 1a-1c. Cell viability was analyzed after the breast cancer MCF7 cells (FIG. 2A) and normal MEC1 cells (FIG. 2B) were treated with 5-FU or compounds 1a-1c at different concentrations. Data are presented as mean±SD, n=4.
(§2) Cell Counting Kit-8 (CCK8, Dojingo) was used to carry out the cytotoxicity assessment of the prodrugs. Seeded cells were treated with varying compound concentrations for 48-72 h and the CCK8 kit was used to measure the cytotoxicity. For NAC experiments, this ROS scavenger was pre-incubated with the cells for 2 h and then co-incubated with the prodrugs for additional 48 hours unless otherwise noted.
(§3) The anticancer effects of new compounds 1a and 1b were tested using the breast cancer MCF7 cells and normal MEC1 cells (FIGS. 2A and 2B). […] These differential killing results highlight the specificity of new prodrugs 1a-1b for cancer cells over normal cells. […] To further verify the role of ROS in the drug release process, the MTT assays was performed, using MCF7 cells pretreated with the ROS scavenger N-Acetyl-Cysteine (NAC).

[3] = system: wild-type C57BL/6 male mice; experiment: Acute toxicity in mice; format: in vivo; details: 100 mg/kg i.p. every other day for 15 days, compared to vehicle group
Experimental: FIGS. 5A and 5B illustrate the survival rate (FIG. 5A) and body weight (FIG. 5B) curves of the various groups of mice. […] Mice were treated every other day by intraperitoneal (i.p.) injection for 15 days, the survival and body weights of the mice were recorded after treatment.
Mice were treated every other day by intraperitoneal (i.p.) injection for 15 days, the survival and body weights of the mice were recorded after treatment.

[4] = Cell viability (CCK8) in normal MEC1 cells; format: cell-based
Experimental: as §1, §2, §3

[5] = 5-FU release study with H2O2 (LC/MS); format: physicochemical; details: for activation by H2O2 to release 5-FU: prodrug 100 μM, H2O2 5 equiv, 30% DMSO in PBS, 37° C., RP-UPLC-MS
Experimental: FIGS. 1A and 1B illustrate the release of 5-FU from compounds 1a-1b. Incubation of prodrugs 1a-1b (100 μM) was carried out in the presence of 5 equivalent of H2O2: (FIG. 1A) compound 1a and (FIG. 1B) compound 1b. The conversion of prodrugs 1a-1b and release of 5-FU was monitored. The data represent mean±SD of triplicates.
Release of 5-FU from the prodrugs was performed at 37° C. in 30% DMSO/Phosphate Buffered saline (PBS). The compounds were co-incubated at 100 μM together with hydrogen peroxide (H2O2) in triplicates. At each time point, aliquots were taken from the solution and diluted in acetonitrile for quantitation in the LC/MS. LC/MS Analysis: samples were analyzed using Xevo TQ-XS Triple Quadrupole Mass Spectrometry (Waters Corp, Milford, Mass.). The column used was a Cortecs C18+2.7 μm 2.1×75 mm column. A 3-min gradient elution with 0.5 mL/min flow rate was used for the samples. Running gradient: 95% mobile phase A over 1.2 min, 95% mobile phase B over 1.2 min, and 95% A 0.6 min, with elution at 1.64 min for the compounds. The ion transitions monitored for the compounds were 5-FU (129.0>40.1) 1a (345.2>86.0), and 1b (263.1>176.1).
Compounds 1a-1b were incubated in a mixture of DMSO in PBS (30%) with the addition of H2O2 (5 equiv) at 37° C. The conversion of prodrugs 1a-1b and the production of 5-FU were followed using RP-UPLC-MS.

| SMILES | inhibition at 50 µM ([1]; Homo sapiens, Renal Cancer TK-10, 48 h) | antiproliferative activity / anticancer effects [2] | body weights [3] | viability at 100 µM [4] | activation by H2O2 to release 5-FU [5] | hydrolysis of boronic ester to boronic acid 1b ([5]; under the release assay conditions (30% DMSO in PBS, H2O2 5 equiv, 37° C.)) | Growth Inhibition (%) ([1]; Renal Cancer TK-10, 50 μM, 48 h) |
| --- | --- | --- | --- | --- | --- | --- | --- |
| CC1(C)OB(c2ccc(Cn3cc(F)c(=O)[nH]c3=O)cc2)OC1(C)C [Compound 1a, 5-Fluoro-1-(4-(4,4,5,5-tetramethyl-1,3,2-dioxaborolan-2-yl)benzyl)pyrimidine-2,4(1H,3H)-dione] | 21% | comparable antiproliferative activity as that of the parent drug 5-FU | no obvious changes | > 95% | activated efficiently | hydrolyzes rapidly |  |
| O=c1[nH]c(=O)n(Cc2ccc(B(O)O)cc2)cc1F [Compound 1b, (4-((5-Fluoro-2,4-dioxo-3,4-dihydropyrimidin-I(2H)-yl)methyl)phenyl)boronic acid] |  |  |  |  | activated efficiently |  | 20% |
